Data taken from US6552022B1, “Benzamide derivatives and their use as ApoB-100 secretion inhibitors” (SmithKline Beecham Corporation, priority 1998, dated 2003).

tested on: apoB-100; assay: Inhibition of apoB-100 secretion by primary human hepatocytes (35S-methionine labelling, SDS PAGE, Phosphorimager); assay type: cell-based; conditions: 8 hours incubation, tested from 1 μM to 1.6 nM, secretion of radiolabeled apoB-100, untreated cells as controls
Description: The ability of the compounds of the invention to inhibit the production of apoB-100 by human hepatocytes in vitro is determined using primary human hepatocytes as a model system. The specificity of the compounds of the invention is established by comparing the effects on apoB-100, apoprotein A-1, and fibrinogen production. A specificity of at least 100 is preferred.
Primary human hepatocytes were seeded at 50 000 cells/well in 96 well plates. After an overnight adhesion phase, cells were incubated with compounds for 8 hours in RPMI medium containing 1% FCS, 4 μg/ml insulin, 100 nM dexamethasone and 50 μCi/ml ^35S-methionine. […] Production of radiolabeled apoB-100 and apoA-1 (used as a selectivity control) was quantified by analysis of supermatants using SDS AGE and exposure of gels onto Phosphorimager screens. Inhibition of apo-100 and apoA-1 secretion by compounds was calculated taking untreated cells as controls, and IC50 of each compound was determined on both apoproteins.

SMILES	IC50 [nM]
COc1cccc(C(=O)Nc2ccc(N3CCN(Cc4cccc(C#N)c4)CC3)cc2)c1-c1ccc(C(C)C)cc1 [Example 3, 4′-Isopropyl-6-methoxy-biphenyl-2-carboxylic Acid [4-[4-(3-cyano-benzyl)-piperazin-1-yl]-phenyl]-amide]	13
Cc1cccc(C(=O)Nc2ccc(N3CCN(Cc4cccc(C#N)c4)CC3)cc2)c1-c1ccc(C(C)C)cc1 [Example 4]	12
Cc1ccc(C(=O)Nc2ccc(N3CCN(Cc4cccc(-c5nc(C)no5)c4)CC3)cc2)c(-c2ccc(C(C)C)cc2)c1 [Example 6]	18
O=C(Nc1ccc(N2CCN(Cc3ccc[nH]3)CC2)cc1)c1ccccc1-c1ccc(C(F)(F)F)cc1 [Example 62, 4′-Trifluormethyl-biphenyl-2-carboxylic Acid [4-(4-(1H-pyrrol-2-ylmethyl)-piperazin-1-yl)-phenyl)-amide]	10
Cc1ccc(C(=O)Nc2ccc(N3CCN(Cc4ccc[nH]4)CC3)cc2)c(-c2ccc(C(C)C)cc2)c1 [Example 63, 4′-Isopropyl-5-methyl-biphenyl-2-carboxylic Acid [4-(4-(1H-pyrrol-2-ylmethyl)-25 piperazin-1-yl)-phenyl]-amide]	20

same assay, conditions: Homo sapiens, Hepatocyte, 8 h, 8 hours incubation, tested from 1 μM to 1.6 nM, secretion of radiolabeled apoB-100, untreated cells as controls

SMILES	IC50 [nM]
Cc1ccc(C(=O)Nc2ccc(N3CCN(Cc4cccc(C#N)c4)CC3)cc2)c(-c2ccc(C(C)C)cc2)c1 [Example 2, 4′-Isopropyl-5-methyl-biphenyl-2-carboxylic Acid [4-[4-(3-cyano-benzyl)-piperazin-1-yl]-phenyl]-amide]	18
COc1cccc(C(=O)Nc2ccc(N3CCN(Cc4cccc(C#N)c4)CC3)cc2)c1-c1ccc(C(C)C)cc1 [Example 3, 4′-Isopropyl-6-methoxy-biphenyl-2-carboxylic Acid [4-[4-(3-cyano-benzyl)-piperazin-1-yl]-phenyl]-amide]	18
Cc1cccc(C(=O)Nc2ccc(N3CCN(Cc4cccc(C#N)c4)CC3)cc2)c1-c1ccc(C(F)(F)F)cc1 [Example 5, 6-Methyl-4′-trifluoromethyl-biphenyl-2-carboxylic Acid [4-[4-(3-cyano-benzyl)-piperazin-1-yl]-phenyl]-amide]	15
Cc1ccc(C(=O)Nc2ccc(N3CCN(Cc4ccc[nH]4)CC3)cc2)c(-c2ccc(C(F)(F)F)cc2)c1 [Example 64, 5-Methyl-4′-trifluoromethyl-biphenyl-2-carboxylic Acid [4-(4-(1H-pyrrol-2-ylmethyl)-piperazin-1-yl)-phenyl]-amide]	19

tested on: not given; assay: not given; conditions: not given

melting point [°C]	SMILES
167 to 169	Cc1ccc(C(=O)Nc2ccc(N3CCN(Cc4cccc(C#N)c4)CC3)cc2)c(-c2ccc(C(C)C)cc2)c1 [Example 2, 4′-Isopropyl-5-methyl-biphenyl-2-carboxylic Acid [4-[4-(3-cyano-benzyl)-piperazin-1-yl]-phenyl]-amide]
179	COc1cccc(C(=O)Nc2ccc(N3CCN(Cc4cccc(C#N)c4)CC3)cc2)c1-c1ccc(C(C)C)cc1 [Example 3, 4′-Isopropyl-6-methoxy-biphenyl-2-carboxylic Acid [4-[4-(3-cyano-benzyl)-piperazin-1-yl]-phenyl]-amide]
192	Cc1cccc(C(=O)Nc2ccc(N3CCN(Cc4cccc(C#N)c4)CC3)cc2)c1-c1ccc(C(F)(F)F)cc1 [Example 5, 6-Methyl-4′-trifluoromethyl-biphenyl-2-carboxylic Acid [4-[4-(3-cyano-benzyl)-piperazin-1-yl]-phenyl]-amide]
183 to 185	O=C(Nc1ccc(N2CCN(Cc3cnccn3)CC2)cc1)c1ccccc1-c1ccc(C(F)(F)F)cc1 [Example 58, 4′-Trifluoromethyl-biphenyl-2-carboxylic acid [4-(4-pyrazin-2-ylmethyl-piperazin-1-yl)-phenyl]-amide]
118 to 120	Cn1ccnc1CN1CCN(c2ccc(NC(=O)c3ccccc3-c3ccc(C(F)(F)F)cc3)cc2)CC1 [Example 60, 4′-Trifluoromethyl-biphenyl-2-carboxylic acid [4-[4-(1-methyl-1H-imidazol-2-ylmethyl)-piperazin-1-yl)-phenyl]-amide]
196 to 198	Cc1ccc(C(=O)Nc2ccc(N3CCN(Cc4ccc[nH]4)CC3)cc2)c(-c2ccc(C(F)(F)F)cc2)c1 [Example 64, 5-Methyl-4′-trifluoromethyl-biphenyl-2-carboxylic Acid [4-(4-(1H-pyrrol-2-ylmethyl)-piperazin-1-yl)-phenyl]-amide]
207 to 209	CCCN1CCN(c2ccc(NC(=O)c3ccccc3-c3ccc(C(F)(F)F)cc3)cc2)CC1 [Example 65, 4′-Trifluoromethyl-biphenyl-2-carboxylic acid [4-(4-propyl-piperazin-1-yl)-phenyl]-amide]
181 to 183	CC(=O)c1cccc(CN2CCN(c3ccc(NC(=O)c4ccccc4-c4ccc(C(F)(F)F)cc4)cc3)CC2)c1 [Example 66, 4′-Trifluoromethyl-biphenyl-2-carboxylic acid [4-(4-(3-acetyl-benzyl)-piperazin-1-yl)-phenyl]-amide]
173 to 175	O=C(Nc1ccc(N2CCN(Cc3ccco3)CC2)cc1)c1ccccc1-c1ccc(C(F)(F)F)cc1 [Example 67, 4′-Trifluoromethyl-biphenyl-2-carboxylic acid [4-(4-furan-2-ylmethyl-piperazin-1-yl)-phenyl]-amide]
195 to 197	COc1cccc(C(=O)Nc2ccc(N3CCN(Cc4ccc[nH]4)CC3)cc2)c1-c1ccc(C(C)C)cc1 [Example 68, 4′-Isopropyl-6-methoxy-biphenyl-2-carboxylic acid [4-(4-(1H-pyrrol-2-ylmethyl)-piperazin-1-yl)-phenyl]-amide]
181 to 183	O=C(Nc1ccc(N2CCN(Cc3cccs3)CC2)cc1)c1ccccc1-c1ccc(C(F)(F)F)cc1 [Example 70, 4′-Trifluoromethyl-biphenyl-2-carboxylic acid [4-(4-thiophen-2-ylmethyl-piperazin-1-yl)-phenyl]-amide]
194 to 196	O=C(Nc1ccc(N2CCN(Cc3cc[nH]n3)CC2)cc1)c1ccccc1-c1ccc(C(F)(F)F)cc1 [Example 71, 4′-Trifluoromethyl-biphenyl-2-carboxylic acid {4-[4-(1H-pyrazole-3-ylmethyl)-piperazine-1-yl]-phenyl}-amide]
168 to 170	O=C(Nc1ccc(N2CCN(Cc3c[nH]c4ccc(F)cc34)CC2)cc1)c1ccccc1-c1ccc(C(F)(F)F)cc1 [Example 73, 4′-Trifluoromethyl-biphenyl-2-carboxylic acid {4-[4-(5-fluoro-1H-indol-3-ylmethyl)-piperazin-1-yl]-phenyl}-amide]
180 to 182	COc1cccc(C(=O)Nc2ccc(N3CCN(Cc4cccc(-c5nc(C)no5)c4)CC3)cc2)c1-c1ccc(C(C)C)cc1 [Example 74, 4′-Isopropyl-6-methoxy-biphenyl-2-carboxylic acid (4-(4-(3-(3-methyl-[1,2,4]oxadiazol-5-yl)-benzyl)-piperazine-1-yl)-phenyl)-amide]
188 to 190	O=C(Nc1ccc(N2CCN(Cc3cccc(-c4noc(C(F)(F)F)n4)c3)CC2)cc1)c1ccccc1-c1ccc(C(F)(F)F)cc1 [Example 75, 4′-Trifluoromethyl-biphenyl-2-carboxylic acid (4-{4-[3-(5-trifluoromethyl-[1,2,4]oxadiazol-3-yl)-benzyl]-piperazin-1-yl}-phenyl)-amide]
165 to 167	O=C(CN1CCN(c2ccc(NC(=O)c3ccccc3-c3ccc(C(F)(F)F)cc3)cc2)CC1)NCc1cccc(-c2ccccc2)c1 [Example 77, 4′-Trifluoromethyl-biphenyl-2-carboxylic Acid [4-(4{[(biphenyl-3-ylmethyl)-carbamoyl]-methyl}piperazin-1-yl)-phenyl]-amide]
205 to 207	O=C(NCC(F)(F)F)c1cccc(CN2CCN(c3ccc(NC(=O)c4ccccc4-c4ccc(C(F)(F)F)cc4)cc3)CC2)c1 [Example 79, 4′-Trifluoromethyl-biphenyl-2-carboxylic Acid (4-{4-[3-(2,2,2-trifluoro-ethylcarbamoyl)-benzyl]-piperazin-1-yl}-phenyl)-amide]
178.5 to 180	N#Cc1cccc(C(=O)N2CCN(c3ccc(NC(=O)c4ccccc4-c4ccc(C(F)(F)F)cc4)cc3)CC2)c1 [Example 80, 4′-Trifluoromethyl-biphenyl-2-carboxylic Acid [4-[4-(3-cyano-benzoyl)-piperazin-1-yl]-phenyl]-amide]
175 to 176.5	CC(=O)N1CCN(c2ccc(NC(=O)c3ccccc3-c3ccc(C(F)(F)F)cc3)cc2)CC1 [Example 81, 4′-Trifluoromethyl-biphenyl-2-carboxylic Acid [4-(4-acetyl-piperazin-1-yl)-phenyl]-amide]
223	N#Cc1cccc(S(=O)(=O)N2CCN(c3ccc(NC(=O)c4ccccc4-c4ccc(C(F)(F)F)cc4)cc3)CC2)c1 [Example 82, 4′-Trifluoromethyl-biphenyl-2-carboxylic Acid [4-[4-(3-cyano-benzenesulfonyl)-piperazin-1-yl]-phenyl]-amide]
254 to 256	CS(=O)(=O)N1CCN(c2ccc(NC(=O)c3ccccc3-c3ccc(C(F)(F)F)cc3)cc2)CC1 [Example 83, 4′-Trifluoromethyl-biphenyl-2-carboxylic Acid [4-(4-methanesulfonyl-piperazin-1-yl)-phenyl]-amide]
124 to 126	N#Cc1cccc(CN2CCC(c3ccc(NC(=O)c4ccccc4-c4ccc(C(F)(F)F)cc4)cc3)CC2)c1 [Example 84, 4′-Trifluoromethyl-biphenyl-2-carboxylic Acid (4-[1-(3-cyano-benzyl)-piperidin-4-yl]-phenyl]-amide]
174	N#Cc1cccc(CN2CCN(c3ccc(NC(=O)c4ccccc4-n4cccc4)cc3)CC2)c1 [Example 85, N-{4-[4-(3-Cyano-benzyl)-piperazin-1-yl]-phenyl}-2-pyrrol-1-yl-benzamide]
169 to 171	N#Cc1cccc(CN2CCN(c3ccc(NC(=O)c4ccccc4-c4ccccn4)cc3)CC2)c1 [Example 86, N-{4-[4-(3-Cyano-benzyl)-piperazin-1-yl]-phenyl}-2-pyridin-2-yl-benzamide]
